Experimental data taken from patent US20110123512A1, “METHOD OF REGULATING THE HEAT SHOCK RESPONSE” (priority 2008, published 2011).
Entries after “also recorded” stand apart in the source; their conditions may differ.

Legend:
[1] = system: hsp70 (C12C8.1) mRNA; assay: effect of dauer pheromone on the heat shock response; type: in vivo, C. elegans
Method: C. elegans strains were grown as described above, and all animals were heat shocked at a population density of 10 adults per plate. Sufficient N values were obtained by repeating each heat shock experiment a minimum of 3 times, with 3 samples of 10 animals per plate, per experiment. Heat shock at 30° C. or 34° C., for 15 minutes on agarose plates was achieved by sealing plates with parafilm, further sealing within zip-lock bags, and immersing in a water bath equilibrated to the appropriate temperature. Following heat shock, the parafilm was removed and the animals were allowed to recover at 20° C. for the course of the experiment.
mRNA was prepared using the “ABSOLUTELY RNA® Nanoprep Kit” (Stratagene, Catalog #400753). […] Quantitative PCR was performed using iQ™ SYBR® Green Supermix (Bio-Rad, Catalog #170-8880), in the iCycler system (Bio-Rad) at a 25 μl sample volume, in thin wall 200 μl PCR plates (Cat. No. 223-9441) sealed with the optical quality sealing tape (Cat. No. 223-9444).
(§1) The relative amounts of hsp mRNA were determined using the Comparative CT Method for quantitation (14). The levels of hsp mRNA levels within an experiment were determined relative to actin mRNA, which was used as the internal control. The range of input of RNA was determined using serial dilutions of the cDNA that yielded a CT value of <30, for both the target cDNA and actin was used in all experiments. […]

[2] = system: hsp70 (C12C8.1) expression; assay: heat shock induction of hsp70 (C12C8.1) in worms anesthetized with volatile anesthetics; type: in vivo, C. elegans; conditions: for hsp70 (C12C8.1) expression in somatic cells: wild-type animals exposed to VAs for the full duration of heat shock (34° C., 15 minutes), 2 hours after recovery; for fraction of animals expressing GFP (hsp70 (C12C8.1) promoter GFP reporter): wild-type animals, VAs during heat shock, 2 hours post-heat shock, control 100%
[3] = system: C. elegans; assay: anesthesia: inhibition of movement and recovery; type: in vivo; conditions: within the first 15 minutes following exposure; no death; 10 adults per plate
Method: The VA anesthetics used were 2-Bromo-2-chloro-1,1,1-trifluoroethane (Halothane, Fluka, catalog #16730) and Isoflurane (Webster Veterinary NDC#14043-220-05). VA anesthetics were delivered as follows: lids of 1.5 ml eppendorf tubes were cut off, VA was pipetted into the lids, and the lids containing VAs were placed onto plates containing 10 adult wild-type or gcy-8 animals grown as described, and the plates were immediately sealed with parafilm. To inhibit neuronal signaling during the course of heat shock, the VA containing lids were placed on plates 5 minutes prior to the heat shock, and retained during the heat shock treatment of 34° C. for 15 minutes. The lids were then removed 10 minutes post-heat shock during recovery at 20° C., when the plates had equilibrated to 20° C. To inhibit neuronal signaling following the administration of heat shock, animals were heat shocked, and then the lids containing the same volume of VA was placed onto plates 20 minutes post-heat shock, and removed after 30 minutes.
As has been described before, the effect of the VA is extremely variable in any given population of C. elegans (15, 16) and is also influenced by other environmental factors, such as population density, to which the animals are exposed (15). Therefore it was necessary to titrate the amount of VA used for each experiment. […]

[4] = system: hsp70 (C12C8.1) mRNA; assay: cadmium stress: hsp70 (C12C8.1) induction; type: in vivo, C. elegans; conditions: 50 μM
Method: (§2) mRNA was prepared using the “ABSOLUTELY RNA® Nanoprep Kit” (Stratagene, Catalog #400753). The manufacturer's protocol was adapted to achieve maximal lysis of worms. Briefly, 5-10 adult animals were picked either from the control or experimental plates into 100 μl of buffer made up by mixing 7 μl 13-ME (instead of the recommended 0.7 μl 13-ME), with 100 μl Lysis Buffer provided by the manufacturer. The suspension was subjected to numerous cycles of freeze-thawing in liquid nitrogen and vortexing until the animals were completely lysed. RNA was then purified as detailed in the manufacturer's protocol. mRNA was reverse transcribed using the ISCRIPT™ cDNA Synthesis Kit (Bio-Rad, Catalog #170-8891). Quantitative PCR was performed using iQ™ SYBR® Green Supermix (Bio-Rad, Catalog #170-8880), in the iCycler system (Bio-Rad) at a 25 μl sample volume, in thin wall 200 μl PCR plates (Cat. No. 223-9441) sealed with the optical quality sealing tape (Cat. No. 223-9444).
as §1

[5] = system: cadmium responsive genes, cdr-1 and mtl-1; assay: cadmium stress: cadmium-responsive gene induction; type: in vivo, C. elegans
Method: as §2
The relative amounts of hsp mRNA were determined using the Comparative CT Method for quantitation (14). The levels of hsp mRNA levels within an experiment were determined relative to actin mRNA, which was used as the internal control. The range of input of RNA was determined using serial dilutions of the cDNA that yielded a CT value of <30, for both the target cDNA and actin was used in all experiments. This typically corresponded to 1 μl of the total cDNA obtained per sample. CT values were obtained in triplicate for each sample (technical triplicate), and three samples were used per experiment. Each experiment was then repeated a minimum of three times. All relative changes of hsp mRNA in the mutant strains were normalized to maximal wild-type values, except where otherwise noted.
Sterile-filtered cadmium chloride was added to a final concentration of 50 μM to standard, autoclaved, NGM medium, and used to make plates. OP50 was seeded onto the plates as described above. […] These animals were then harvested for quantitative RT-PCR. […]

C[C@H](CCCCC(=O)O)O[C@@H]1O[C@@H](C)[C@H](O)C[C@H]1O [dauer pheromone]
amounts of hsp70 (C12C8.1) mRNA after heat shock ([1]; gcy-8 mutant animals exposed to dauer pheromone, compared with heat-shocked wild-type under optimal growth conditions): induced even higher amounts
amounts of hsp70 (C12C8.1) mRNA after heat shock ([1]; wild-type animals, high concentrations of dauer pheromone prior to or during heat shock (34° C., 15 minutes)): decreased

FC(F)OC(Cl)C(F)(F)F (stereo not shown) [isoflurane, Isoflurane]
hsp70 (C12C8.1) expression in somatic cells [2]: inhibition; also recorded: marked decrease
fraction of animals expressing GFP (hsp70 (C12C8.1) promoter GFP reporter) [2]: 20%
volume of VA that inhibited the movement of 100% of the animals on a plate [3]: 10 to 25 µL

[Cl][Cd][Cl] [cadmium, cadmium chloride]
hsp70 (C12C8.1) mRNA further induction ([4]; after 16 hours of exposure): more than 10 fold
hsp70 (C12C8.1) mRNA ([4]; wild-type and gcy-8 mutant animals, 3 hours of exposure): similarly increased
expression of cdr-1 and mtl-1 upon exposure to cadmium ([5]; gcy-8 (thermosensory deficient) adult animals): can induce
expression of cdr-1 and mtl-1 upon exposure to cadmium ([5]; osm-9 and ocr-2 mutant animals): deficient in their ability to upregulate
cdr-1 mRNA ([5]; wild-type and gcy-8 mutant animals, 3 hours of exposure, 50 μM): similarly increased

FC(F)(F)C(Cl)Br (stereo not shown) [halothane, 2-Bromo-2-chloro-1,1,1-trifluoroethane]
hsp70 (C12C8.1) expression in somatic cells [2]: inhibition; also recorded: marked decrease
fraction of animals expressing GFP (hsp70 (C12C8.1) promoter GFP reporter) [2]: 20%
volume of VA that inhibited the movement of 100% of the animals on a plate [3]: 5 to 15 µL
